Assay results published in PMC5524698, “A cell-based, quantitative and isoform-specific assay for exchange proteins directly activated by cAMP” (Scientific Reports, 2017).

Columns and labels:
[1] = target: T1, EPAC1 (Homo sapiens, UniProt O95398); experiment: Cellular Rap1 assay (ELISA for Rap1-GTP) in HEK293/hEPAC1/Flag-Rap1 cells; format: cell-based; conditions: for AC50: 10 min stimulation, read-out: apparent half maximal activation constant (AC50), Rap1-GTP levels
T1 construct: HEK293 cell lines stably expressing Flag-tagged Rap1A and full-length EPAC1 or EPAC2 are proposed; expressed in transfected cells
T1 sequence (O95398 1-923): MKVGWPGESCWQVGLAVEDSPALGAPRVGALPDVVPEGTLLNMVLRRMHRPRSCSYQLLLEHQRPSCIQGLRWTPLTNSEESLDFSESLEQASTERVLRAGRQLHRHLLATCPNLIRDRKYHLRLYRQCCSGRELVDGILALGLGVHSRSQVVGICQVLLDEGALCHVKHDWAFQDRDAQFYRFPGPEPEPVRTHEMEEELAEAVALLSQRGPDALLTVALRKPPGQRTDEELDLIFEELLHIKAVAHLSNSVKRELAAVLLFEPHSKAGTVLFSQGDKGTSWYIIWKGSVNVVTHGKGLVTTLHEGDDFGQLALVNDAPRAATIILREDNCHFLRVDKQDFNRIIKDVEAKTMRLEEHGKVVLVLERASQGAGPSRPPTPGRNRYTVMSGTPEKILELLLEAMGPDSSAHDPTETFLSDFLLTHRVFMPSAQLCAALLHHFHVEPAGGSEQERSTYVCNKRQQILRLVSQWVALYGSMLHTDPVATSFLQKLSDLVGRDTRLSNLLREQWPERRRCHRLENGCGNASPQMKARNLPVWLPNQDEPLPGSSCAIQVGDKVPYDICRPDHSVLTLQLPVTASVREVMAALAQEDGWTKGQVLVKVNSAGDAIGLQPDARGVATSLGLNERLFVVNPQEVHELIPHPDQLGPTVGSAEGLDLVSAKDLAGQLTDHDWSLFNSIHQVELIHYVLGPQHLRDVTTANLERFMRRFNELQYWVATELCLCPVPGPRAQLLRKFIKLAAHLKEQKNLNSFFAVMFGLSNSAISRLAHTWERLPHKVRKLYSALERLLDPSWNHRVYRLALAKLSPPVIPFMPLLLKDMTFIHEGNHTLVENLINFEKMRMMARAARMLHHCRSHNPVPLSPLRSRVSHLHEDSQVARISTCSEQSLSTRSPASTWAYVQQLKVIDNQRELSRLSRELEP
Text: To develop a cell-based, isoform-specific EPAC activation assay, HEK293 cell lines stably expressing Flag-tagged Rap1A and full-length EPAC1 or EPAC2 are proposed. HEK293 cells express minimal endogenous levels of EPAC1 and EPAC2 and have been used as host cells for evaluating the cellular activities of ectopically expressed EPAC proteins in an isoform-specific manner. Activation of EPAC1 or EPAC2 in these cell lines by cAMP elevating agents leads to the accumulation of Flag-Rap1-GTP, which can be captured by RalGDS-RBD immobilized in a nickel-coated 96-well microplate. The levels of active Flag-Rap1-GTP protein can be quantitatively monitored using a specific anti-FLAG antibody and a HRP conjugated secondary antibody in a manner similar to that of a conventional ELISA assay (Fig. 1).
HEK293 (ATCC) cells were grown in MEM medium supplemented with 10% heat-inactivated FBS (Invitrogen), at 37 °C, 5% CO2. HEK293 stable cell lines expressing Flag-tagged human Rap1A (Flag-hRap1A) alone and co-expressing human EPAC1 (hEPAC1) and Flag-hRap1A or mouse EPAC2 (mEPAC2) and Flag-hRap1A were established by sequential transfections using Lipofectamine 2000 reagent (Invitrogen) with mammalian expression vectors, first with pIRES2-EGFP containing Flag-hRap1A and followed by pIRES‐hyg2 containing hEPAC1 or mEPAC2. Individual stable cell clones were selected and maintained in MEM containing 500 µg/ml G418 for pIRES2-EGFP and 100 µg/ml hygromycin B for pIRES‐hyg2, respectively.
HEK293 cells co-expressing hEPAC1/Flag-tagged hRap1A or mEPAC2/Flag-tagged hRap1A were seeded in 12-well plates (Corning #3513) at an initial confluency of 400,000 cell/well and incubate at 37 °C, 5% CO2, in MEM medium with 10% FBS, for 24 hours. Cells were then rinsed with HBSS and cultured in FBS-free MEM medium for another 16 hours. If necessary cells were first pretreated with various concentration of antagonists or vehicle at 37 °C for 30 min. Otherwise, the cells were stimulated with various concentrations of agonists or vehicle controls at 37 °C for 10 min, then immediately rinsed with ice-cold PBS and lysed in 500 µl ice-cold lysis buffer containing 20 mM Tris-HCl, pH 7.4, 150 mM NaCl, 10 mM MgCl2, 1% IGEPAL CA-630 and proteinase inhibitors cocktail. Cell extracts were clarified by centrifugation at 18,000 RCF for 20 min and their protein concentrations were determined by DC protein assay kit. 100 µl of properly diluted cell lysates containing 0 to 50 µg total proteins were added to nickel coated 96-well plate strips that were pre-coated with 200 µg of RalGDS-RBD-His6 proteins and incubated at 4 °C for 2 hours with gentle rocking. After washing with 100 µl ice-cold ELISA buffer (20 mM Tris-HCl, pH 7.4, 150 mM NaCl, 10 mM MgCl2 and 0.1% Tween-20) for 3 times, 100 µl mouse anti-Flag antibody (1:5000 in ELISA buffer) was added into each well and incubated at 4 °C for 1 hour with gentle shaking. Following three washes with 100 µl ice-cold ELISA buffer, 100 µl anti-mouse HRP-conjugated antibodies (1:3000 in ELISA buffer) were added into each well. After incubation at room temperature for 1 hour with gentle shaking, the wells were washed three times with 100 µl ELISA buffer. 200 µl of OPD substrate was added into each well and absorbance signal at 450 nm was monitored using an M2 microplate reader (Molecular Devices) for 30 min with 1-min intervals. 10-min data points were used for quantification.

[2] = target: T2, EPAC2 (Mus musculus, UniProt Q9EQZ6); experiment: Cellular Rap1 assay (ELISA for Rap1-GTP) in HEK293/mEPAC2/Flag-Rap1 cells; format: cell-based
T2 construct: HEK293 cell lines stably expressing Flag-tagged Rap1A and full-length EPAC1 or EPAC2 are proposed; expressed in transfected cells
T2 sequence (Q9EQZ6 1-1011): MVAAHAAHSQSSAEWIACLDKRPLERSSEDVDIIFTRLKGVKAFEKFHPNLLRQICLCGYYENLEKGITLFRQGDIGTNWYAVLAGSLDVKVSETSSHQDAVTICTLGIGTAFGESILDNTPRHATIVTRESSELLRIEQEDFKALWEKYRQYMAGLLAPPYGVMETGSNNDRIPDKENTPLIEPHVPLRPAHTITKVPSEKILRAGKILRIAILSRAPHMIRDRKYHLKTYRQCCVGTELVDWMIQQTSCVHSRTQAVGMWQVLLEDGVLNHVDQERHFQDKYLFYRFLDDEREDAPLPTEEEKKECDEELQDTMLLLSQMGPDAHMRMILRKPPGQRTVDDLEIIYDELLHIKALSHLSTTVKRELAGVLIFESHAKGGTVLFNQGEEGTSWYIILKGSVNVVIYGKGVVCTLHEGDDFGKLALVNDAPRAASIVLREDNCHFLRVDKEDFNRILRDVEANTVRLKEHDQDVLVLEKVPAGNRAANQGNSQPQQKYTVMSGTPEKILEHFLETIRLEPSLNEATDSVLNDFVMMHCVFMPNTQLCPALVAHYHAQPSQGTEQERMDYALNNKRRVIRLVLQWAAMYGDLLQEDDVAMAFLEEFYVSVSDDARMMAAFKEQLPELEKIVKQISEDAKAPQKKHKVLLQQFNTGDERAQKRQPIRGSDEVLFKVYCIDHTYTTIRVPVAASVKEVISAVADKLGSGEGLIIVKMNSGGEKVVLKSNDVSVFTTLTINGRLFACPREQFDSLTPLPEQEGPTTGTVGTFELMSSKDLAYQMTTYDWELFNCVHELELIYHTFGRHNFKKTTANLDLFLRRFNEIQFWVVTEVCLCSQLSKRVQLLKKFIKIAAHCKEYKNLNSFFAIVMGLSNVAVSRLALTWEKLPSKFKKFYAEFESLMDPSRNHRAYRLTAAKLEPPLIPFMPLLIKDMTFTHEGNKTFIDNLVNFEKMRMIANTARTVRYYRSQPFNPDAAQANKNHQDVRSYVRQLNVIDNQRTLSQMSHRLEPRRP
Method: HEK293 cells co-expressing hEPAC1/Flag-tagged hRap1A or mEPAC2/Flag-tagged hRap1A were seeded in 12-well plates (Corning #3513) at an initial confluency of 400,000 cell/well and incubate at 37 °C, 5% CO2, in MEM medium with 10% FBS, for 24 hours. Cells were then rinsed with HBSS and cultured in FBS-free MEM medium for another 16 hours. If necessary cells were first pretreated with various concentration of antagonists or vehicle at 37 °C for 30 min. Otherwise, the cells were stimulated with various concentrations of agonists or vehicle controls at 37 °C for 10 min, then immediately rinsed with ice-cold PBS and lysed in 500 µl ice-cold lysis buffer containing 20 mM Tris-HCl, pH 7.4, 150 mM NaCl, 10 mM MgCl2, 1% IGEPAL CA-630 and proteinase inhibitors cocktail. Cell extracts were clarified by centrifugation at 18,000 RCF for 20 min and their protein concentrations were determined by DC protein assay kit. […] 200 µl of OPD substrate was added into each well and absorbance signal at 450 nm was monitored using an M2 microplate reader (Molecular Devices) for 30 min with 1-min intervals. 10-min data points were used for quantification.

[3] = tested on: EPAC2; set-up: method as in PMID 23091014, PMID 23286832; conditions: in the presence of 20 µM cAMP; selective for EPAC2, not EPAC1; cited from earlier work
[4] = target: T1, EPAC1; experiment: Conventional affinity pull-down assay of Rap1-GTP using GST-RalGDS-RBD, immunoblot; format: cell-based; conditions: HEK293/hEPAC1/Flag-Rap1 cells, various concentrations
Text: Forskolin is a labdane diterpene natural product, commonly used a biochemical tool to stimulate intracellular levels of cAMP[31]. Treatment of HEK293/hEPAC1/Flag-Rap1 or HEK293/mEPAC2/ Flag-Rap1 cells with forskolin led to a dose-dependent increase in Rap1-GTP levels in both cell lines (Fig. 3A,B). […] Since forskolin-mediated increase in intracellular cAMP activates both EPAC and PKA, to ensure that the signals observed in our assay were not in part due to the activation of PKA, control experiments in the presence of a PKA-specific inhibitor, H89, were performed.
Figure S1. Dose-dependent cellular activation of EPAC1 by forskolin. Relative Rap1-GTP levels, as monitored by affinity pull-down assay using GST-RalGDS-RBD, in HEK293 cells overexpressing EPAC1 stimulated by various concentrations of forskolin. Inset: representative immunoblot image of Rap1-GTP levels under basal and forskolin-stimulated conditions.

**Q.** Which AC50 ([1]; HEK293/hEPAC1/Flag-Rap1 cells) does the source give for CO[C@@H]1[C@@H]2OP(=O)(OCOC(C)=O)OC[C@H]2O[C@H]1n1c(Sc2ccc(Cl)cc2)nc2c(N)ncnc21 (stereo partly shown) [007-AM, 8-pCPT-2-O-Me-cAMP-AM] here?
**A.** 16.5 ± 3.1 nM

**Q.** What about the “dose-dependent activation of EPAC2 (Rap1-GTP levels)” value ([2]; up to 10 µM) of the same compound?
**A.** did not reach plateau

**Q.** With Cc1ccc(S(=O)(=O)c2c(C)cc(C)cc2C)cc1 [ESI-05] as the compound, how does the “inhibition of cellular EPAC1 activation” value ([1]; stimulated by 1 µM Forskolin, HEK293/hEPAC1/Flag-Rap1 cells) read?
**A.** no detectable activity

**Q.** What about the “potency of EPAC2 inhibition” value [3] of the same compound?
**A.** sub-micromolar

**Q.** Which results are given for C=C[C@@]1(C)CC(=O)[C@]2(O)[C@@]3(C)[C@@H](O)CCC(C)(C)[C@@H]3[C@H](O)[C@H](OC(C)=O)[C@@]2(C)O1 [Forskolin]?
**A.** AC50 ([1]; HEK293/hEPAC1/Flag-Rap1 cells): 226 ± 57 nM; AC50 ([2]; 10 min stimulation, read-out: apparent half maximal activation constant (AC50), Rap1-GTP levels): 137 ± 36 nM; activation of Rap1 (relative Rap1-GTP levels, pull-down) [4]: dose-dependent activation

**Q.** For O=S(=O)(NCCNC/C=C/c1ccc(Br)cc1)c1cccc2cnccc12 [H89], which “effects on basal and forskolin-induced Rap1 activities” value ([1]; 10 µM H89, HEK293 cells overexpressing EPAC1 (Fig. S2)) is on record?
**A.** minimal

**Q.** Which results are given for CC(C)(C)c1cc(C(=O)/C(C#N)=N/Nc2cc(Cl)c(Cl)c(Cl)c2)no1 [NY-0123]?
**A.** IC50 ([1]; stimulated by 1 µM Forskolin, 30 min pretreatment, HEK293/hEPAC1/Flag-Rap1 cells, read-out: apparent IC50, inhibition of cellular EPAC1 activity): 4900 ± 600 nM; IC50 ([2]; stimulated by 1 µM Forskolin, 30 min pretreatment, read-out: apparent IC50, inhibition of cellular EPAC2 activity): 9600 ± 1600 nM
